Source: US20250059141A1, “TLR MODULATOR AND USE THEREOF” (DUALITY BIOLOGICS (SUZHOU) CO., LTD., priority 2021, published 2025)
Read-outs that look alike come from different tables or passages of the source.

How the values were obtained:
[1] = molecular target: T1, hTLR8 (human Toll-like receptor 8) (Homo sapiens, UniProt Q9NR97); assay: HEK-Blue hTLR8 reporter assay (QUANTI-Blue, OD650); assay type: cell-based; conditions: HEK-Blue hTLR8 cells, 24 h, read-out: Reporter assay TLR8 EC50
T1 construct: host or cells: HEK-Blue hTLR8 (HEK293-derived reporter cells)
T1 sequence (Q9NR97 27-1041): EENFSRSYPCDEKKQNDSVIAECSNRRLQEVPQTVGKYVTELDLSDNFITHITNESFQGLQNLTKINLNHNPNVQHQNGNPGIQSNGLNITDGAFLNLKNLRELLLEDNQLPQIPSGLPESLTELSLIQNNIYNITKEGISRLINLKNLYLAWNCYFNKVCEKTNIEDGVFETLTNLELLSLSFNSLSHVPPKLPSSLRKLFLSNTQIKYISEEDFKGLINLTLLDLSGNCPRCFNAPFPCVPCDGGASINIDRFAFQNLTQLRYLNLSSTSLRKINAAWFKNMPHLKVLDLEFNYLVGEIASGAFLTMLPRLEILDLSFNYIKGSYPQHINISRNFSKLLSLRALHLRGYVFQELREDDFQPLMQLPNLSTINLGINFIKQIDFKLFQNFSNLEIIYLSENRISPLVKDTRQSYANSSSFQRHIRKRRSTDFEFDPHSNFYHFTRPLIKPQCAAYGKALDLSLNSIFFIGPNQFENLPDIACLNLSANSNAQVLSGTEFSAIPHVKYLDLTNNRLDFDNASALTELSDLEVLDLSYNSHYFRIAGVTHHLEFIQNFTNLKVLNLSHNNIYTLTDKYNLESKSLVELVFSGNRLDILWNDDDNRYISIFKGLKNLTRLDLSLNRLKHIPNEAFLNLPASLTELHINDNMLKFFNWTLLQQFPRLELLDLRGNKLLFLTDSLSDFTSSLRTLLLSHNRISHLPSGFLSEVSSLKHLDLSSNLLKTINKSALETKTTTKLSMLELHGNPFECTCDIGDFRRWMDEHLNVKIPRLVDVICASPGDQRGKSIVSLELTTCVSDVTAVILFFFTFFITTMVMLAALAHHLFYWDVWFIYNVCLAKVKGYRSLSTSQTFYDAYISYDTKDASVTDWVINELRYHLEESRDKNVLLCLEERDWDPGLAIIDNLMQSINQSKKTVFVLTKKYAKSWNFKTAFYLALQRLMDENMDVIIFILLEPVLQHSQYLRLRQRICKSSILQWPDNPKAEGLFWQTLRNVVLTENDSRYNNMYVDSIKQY
Description: (§1) In this example, the agonistic activity of the compounds of the present application on hTLR7 (human Toll-like receptor 7) and hTLR8 (human Toll-like receptor 8) was assessed; the induction activity of the compounds on human PBMCs for TNF-α and IFN-α production was assessed in human PBMCs (human peripheral blood mononuclear cells).
(§2) All compounds were formulated in DMSO into 30 mM stock solutions and preserved at 4° C. The reference compound ([…], Cat. No. tlrl-r848-5) was purchased from InvivoGen and formulated into a 5 mg/mL stock solution in DMSO and preserved in a freezer at −20° C. HEK-Blue hTLR7 and HEK-Blue hTLR8 cell lines were purchased from InvivoGen, and human PBMCs were purchased from Shanghai Saily Biotechnology Co., Ltd. (Cat. No. XFB—HP100B).
(§3) The major instruments used in this study were multifunctional microplate reader Flexstation III (Molecular Device), Envision (Perkin Elmer), M2e (Molecular Device), and Echo555 (Labcyte). 2.1 Agonistic activity of compounds on hTLR7 (human Toll-like receptor 7) and hTLR8 (human Toll-like receptor 8)
(§4) Compound dilution: The compounds of the present application are diluted in DMSO, for example, to about 15 mM. The reference compound was added to the plates in sequence after dilution. The compounds were serially 3-fold diluted to 10 concentrations and added to 96-well plates in duplicate.
(§5) For the negative control wells, DMSO was added at 0.2 μL/well, and the reference compound was added to the positive control wells. The final concentration of DMSO was 0.2%.
(§6) Cell plating: When an 80% confluence of HEK Blue hTLR7&8 cells in the culture flask was observed under a microscope, the culture medium was discarded, 10 mL of detection medium was added, and the cells were separated by pipetting. The cells were counted on a cytometer and diluted to 500,000 cells/mL. The cells were plated at 100 μL/50,000 cells/well in the 96-well plates containing the compounds. The compounds and cells were co-incubated at 37° C. in a 5% CO2 incubator for 24 hours.
(§7) Compound activity detection: 20 μL of cell supernatant was taken from each well and added to a plate containing QUANTI-Blue™ reagent at 180 μL/well. The plate was incubated at 37° C. for 1 hour, and the absorbance at 650 nm (OD650) was measured on the multifunctional microplate reader Flexstation III.
(§8) Compound activity data analysis: The OD650 values were analyzed by GraphPad Prism software and fitted to give dose-response curves of the compounds. The EC50 values of compounds were calculated.

[2] = molecular target: T2, hTLR7 (human Toll-like receptor 7) (Homo sapiens, UniProt Q9NYK1); assay: HEK-Blue hTLR7 reporter assay (QUANTI-Blue, OD650); assay type: cell-based; conditions: HEK-Blue hTLR7 cells, 24 h, read-out: Reporter assay TLR7 EC50
T2 construct: host or cells: HEK-Blue hTLR7 (HEK293-derived reporter cells)
T2 sequence (Q9NYK1 27-1049): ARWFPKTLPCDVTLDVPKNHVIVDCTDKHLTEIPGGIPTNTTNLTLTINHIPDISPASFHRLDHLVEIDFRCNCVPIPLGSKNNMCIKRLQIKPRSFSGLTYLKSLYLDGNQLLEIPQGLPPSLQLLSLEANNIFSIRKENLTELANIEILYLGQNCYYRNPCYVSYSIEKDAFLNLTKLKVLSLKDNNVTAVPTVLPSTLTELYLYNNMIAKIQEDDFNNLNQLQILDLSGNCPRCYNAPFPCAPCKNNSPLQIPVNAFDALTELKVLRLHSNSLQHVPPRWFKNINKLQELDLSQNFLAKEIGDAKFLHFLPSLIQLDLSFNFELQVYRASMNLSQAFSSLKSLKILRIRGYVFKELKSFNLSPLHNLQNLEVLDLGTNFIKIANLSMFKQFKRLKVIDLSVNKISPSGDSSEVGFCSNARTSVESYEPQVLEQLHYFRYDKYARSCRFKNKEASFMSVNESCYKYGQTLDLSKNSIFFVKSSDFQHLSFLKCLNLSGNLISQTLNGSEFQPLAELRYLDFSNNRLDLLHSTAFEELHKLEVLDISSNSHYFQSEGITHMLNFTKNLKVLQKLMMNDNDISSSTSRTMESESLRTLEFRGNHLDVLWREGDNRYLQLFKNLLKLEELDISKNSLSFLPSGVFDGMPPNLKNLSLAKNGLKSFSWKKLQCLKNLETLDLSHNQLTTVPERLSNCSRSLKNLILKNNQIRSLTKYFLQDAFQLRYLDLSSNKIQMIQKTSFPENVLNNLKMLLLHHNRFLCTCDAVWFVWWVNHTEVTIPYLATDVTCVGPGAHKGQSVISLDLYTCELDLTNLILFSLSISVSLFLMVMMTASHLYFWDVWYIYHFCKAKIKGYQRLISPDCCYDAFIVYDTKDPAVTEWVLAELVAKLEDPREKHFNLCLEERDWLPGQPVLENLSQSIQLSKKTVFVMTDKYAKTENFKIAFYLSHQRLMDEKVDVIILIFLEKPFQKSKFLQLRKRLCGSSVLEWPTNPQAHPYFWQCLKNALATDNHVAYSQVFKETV
Description: as §1, §2, §3, §4, §5, §6, §7, §8

EC50 [1] [nM]	EC50 [2] [nM]	EC50 ([1]; class symbols) [nM]	EC50 ([2]; class symbols) [nM]	SMILES
2.8	3550			CCCN(OCc1ccc(N)cc1)C(=O)C1=Cc2ccc(C(=O)N3CCOCC3)cc2N=C(N)C1 [Compound 39]
		10 to 100	> 1000	CCCN(OCc1ccc(N)cc1)C(=O)C1=Cc2ccc(C(=O)N3CC[C@@H](O)C3)cc2N=C(N)C1 [Compound 46A]
		10 to 100	> 1000	CCCN(OCc1ccc(N)cc1)C(=O)C1=Cc2ccc(C(=O)N3CC[C@H](O)C3)cc2N=C(N)C1 [Compound 46B]
